Results on 4 compounds are retold here after patent US12358919B2, “Antibacterial compounds” (Universita' degli Studi di Siena, priority 2019, dated 2025).

Molecules are shown by their SMILES. Where two headings read alike, the source gives them in different places. Where a SMILES comes first, the peptide text is derived from it. Bridges are numbered along the chain shown (N, C = ends). [ ]: non-standard residue; d: D form. The star is where a group is joined. X1 = CC[C@H](C)CCCCC(=O)*; Dab = NCC[C@H](N)C(=O)O

For test [1], the system named is Acinetobacter baumannii ATCC 17978. The experiment in a line: microbe, parasite or virus in culture. The format is cell-based. The note with it: for Potentiation fold: ratio MICcompound/MICcompound+polymyxin E; for MIC in presence of colistin: with 0.25xMIC polymyxin E1 (0.25 mg/L); for MIC: Acinetobacter baumannii, ATCC17978. The method, then: (§1) Growth inhibition or killing of bacteria was investigated using conventional methods widely described in the scientific literature. Parameters such as the Minimum Inhibitory Concentration (MIC) were determined as described in Clinical Laboratory Standard Institute (CLSI) document M07 “Methods for Dilution Antimicrobial Susceptibility Tests for Bacteria That Grow Aerobically, 11th Edition” (2018). Synergistic activity of the compounds described in the present specification were determined by measuring the variation of the MIC's compound in the absence and presence of a sub-inhibitory concentration of a suitable antibacterial agent, such as polymyxin E1. Furthermore, the Fractional Inhibitory Concentrations (FICs) were measured using a chequerboard analysis to determine the average FIC index (FICI), whose value is known to characterize the interaction between two compounds and/or drugs (≤0.5, synergistic interaction; >0.5 and <2, no interaction, additive effect; ≥2, antagonistic interaction). Furthermore, the selectivity of the compounds was investigated by measuring their cytotoxic effect on mammalian cell lines (e.g. HeLa cells).
(§2) Several methods were used to investigate the synergistic activity of the compounds, including (a) the determination of the MIC in the presence of a sub-inhibitory concentration of a suitable antibacterial agent, (b) the determination of the average FICI using a chequerboard analysis and (c) the time-kill curve analysis of a suitable agent (at a sub-inhibitory concentration) in the absence and presence of the pyrazolo[4,3-b]pyridin-6-carboxamide compound at a fixed concentration of 2 or 8 mg/L.
(§3) The MIC of the compound was determined alone and in the presence of a fixed and sub-inhibitory concentration of a suitable antibacterial agent of the polymyxin class, such as polymyxin E1 (colistin). The potentiation fold was computed as the ratio MICcompound/MICcompound+polymyxin E. Tested organisms included Escherichia coli CCUG^TKlebsiella pneumoniae ATCC 13833 and Acinetobacter baumannii ATCC 17978, which show a colistin MIC of 0.5, 0.5 and 1 mg/L, respectively.

For a further test, the system named is Escherichia coli CCUG^T. The experiment in a line: microbe, parasite or virus in culture. Type of test: cell-based. The note with it: for MIC: Escherichia coli; for Potentiation fold: ratio MICcompound/MICcompound+polymyxin E; for MIC in presence of colistin: with 0.25xMIC polymyxin E1 (0.12 mg/L). The method, then:
as §1, §2, §3

Test [2] has as its system Klebsiella pneumoniae ATCC 13833. The experiment in a line: microbe, parasite or virus in culture. Type of test: cell-based. The note with it: for Potentiation fold: ratio MICcompound/MICcompound+polymyxin E; for MIC in presence of colistin: with 0.25xMIC polymyxin E1 (0.12 mg/L); for MIC: Klebsiella pneumoniae, ATCC13833. The protocol:
as §1, §2, §3

The subject of the next test is K. pneumoniae SI-4B. Kind of test: Chequerboard analysis with polymyxin E1 (average FIC index). Type of test: cell-based, Klebsiella pneumoniae. Conditions: K. pneumoniae SI-4B (colistin-resistant); compound + polymyxin E1.
The test system of the next test is K. pneumoniae SI-27. The test is described as above. The format is cell-based, Klebsiella pneumoniae. The note with it: K. pneumoniae SI-27 (colistin-resistant); compound + polymyxin E1.
The next test has as its system E. coli CCUG^T. The description is as above. The format is cell-based, Escherichia coli. Conditions: compound + polymyxin E1.
For another test, the system named is K. pneumoniae ATCC 13833. Described as above. The format is cell-based, Klebsiella pneumoniae. Conditions: compound + polymyxin E1.
In test [3] the test system is Bacillus subtilis ATCC 6633. Kind of test: MIC, broth microdilution (direct antibacterial activity). Type of test: cell-based. Conditions: ATCC6633. The protocol: as §1
(§4) The MIC values were determined using the broth microdilution method as described in document M07 using Mueller-Hinton broth as culture medium and an initial bacterial inoculum size of 5×10^5 CFU/mL, with a final volume of 100 μL per well in a 96-well microplate. Bacterial strains were Bacillus subtilis ATCC 6633, Enterococcus faecalis ATCC 29212, Streptococcus pyogenes ATCC 12344 and Staphylococcus aureus ATCC 25923. The tested compound concentration ranged from 512 to 0.25 mg/L. Plates were incubated for 18-24 hours at 35±2° C. prior to results analysis.
A general note: In broth dilution the organism is exposed to a series of concentrations in liquid medium.

In test [4] the test system is Enterococcus faecalis ATCC 29212. The description is as above. The format is cell-based. Conditions: ATCC29212. The protocol: as §1, §4
Test [5] deals with Staphylococcus aureus ATCC 25923. Described as above. Conditions: ATCC25923. The format is cell-based. The method, then: as §1, §4
Test [6] deals with Streptococcus pyogenes ATCC 12344. The description is as above. Conditions: ATCC12344. The format is cell-based. The method, then: as §1, §4
The test system of a further test is A. baumannii ATCC 17978. The experiment in a line: Chequerboard analysis with polymyxin E1 (average FIC index). Type of test: cell-based, Acinetobacter baumannii. The note with it: compound + polymyxin E1.
In test [7] the test system is polymyxin E1-resistant Acinetobacter baumannii (strain N50) clinical isolate. The format is cell-based. Conditions: A. baumannii N50; colistin alone. The method, then: as §1
“Chequerboard” method was used to further investigate the synergistic activity of pyrazolo[4,3-b]pyridin-6-carboxamides when this compounds are combined with polymyxin E1. […]

Test [8] relates to Acinetobacter baumannii (N50 strain), multidrug-resistant clinical isolate resistant to polymyxin E1. Kind of test: Time-kill curve analysis (bactericidal activity). The note with it: polymyxin E1 2 mg/L alone; inoculum 10^5 CFU/mL. Type of test: cell-based. The method, then:
FIG. 1: bactericidal activity on Acinetobacter baumannii (N50 strain) of polymyxin E1, 2 mg/L (square); polymyxin E1, 2 mg/L+compound Ib 32 mg/L (triangles); control (circles).
as §2
The kinetics of bacterial killing offers an additional mean to characterize the antibacterial activity of compounds, also in combination with other antimicrobial agents. Compounds or a combination thereof are defined as bactericides when the viable bacterial load is decreased by at least 3 log10 (EUCAST, cit.).
This analysis was carried with a multidrug-resistant Acinetobacter baumannii clinical isolate showing resistance to polymyxin E1. The time-kill curves were generated starting from a bacterial inoculum of 10^5 CFU/mL. Bacterial count was determined at several time intervals in the absence (control) or presence of 2 mg/L polymyxin E1 (corresponding to the resistance breakpoint, EUCAST, cit.) supplemented with 32 mg/L of compound Ib (FIG. 1).

As for `CCCCn1c(=O)c(C(=O)NC23CC4CC(CC(C4)C2)C3)c(O)c2nn(CCO)cc21` [Im, N-(Adamantan-1-yl)-4-(1-butyl)-4,5-dihydro-7-hydroxy-2-(2-hydroxyethyl)-5-oxo-2H-pyrazolo[4,3-b]pyridin-6-carboxamide], the Potentiation fold in test [1] (A. baumannii ATCC 17978) and in test [2] (K. pneumoniae ATCC 13833) was not below 64 in each case. Besides, the “MIC in presence of colistin” value in [1] (A. baumannii ATCC 17978) and in test [2] (K. pneumoniae ATCC 13833) was 8 mg/L in each case. In addition, the MIC (in test [1]; with Escherichia coli CCUG^T; in test [2]) was more than 512 µg/mL throughout. Further, the entries for the “Average FIC index” value with K. pneumoniae SI-4B and with K. pneumoniae SI-27 were 0.31 and 0.41, respectively.

With `CCCCn1c2c(c(O)c(C(=O)NC34CC5CC(CC(C5)C3)C4)c1=O)N(CCO)NC2` [Ip, N-(Adamantan-1-yl)-4-(1-butyl)-4,5-dihydro-7-hydroxy-1-(2-hydroxyethyl)-5-oxo-2H-pyrazolo[4,3-b]pyridin-6-carboxamide], the values for the Potentiation fold (in test [1] (A. baumannii ATCC 17978); with Escherichia coli CCUG^T (E. coli CCUG^T); in [2] (K. pneumoniae ATCC 13833)) were not below 16, not below 16 and not below 32, respectively. Besides, the “MIC in presence of colistin” value in [1] (A. baumannii ATCC 17978) worked out at 32 mg/L; in the test with Escherichia coli CCUG^T (E. coli CCUG^T), 32 mg/L; in test [2] (K. pneumoniae ATCC 13833), 16 mg/L. Besides, the MIC in test [1] (A. baumannii ATCC 17978, compound alone, read-out: MIC) was more than 512 µg/mL; in the test on Escherichia coli CCUG^T (E. coli CCUG^T, compound alone, read-out: MIC) it was more than 512 µg/mL; in test [2] (K. pneumoniae ATCC 13833, compound alone, read-out: MIC), more than 512 µg/mL. Further, the entries for the “Average FIC index” value in the test on E. coli CCUG^T and in the test with K. pneumoniae ATCC 13833 were 0.33 and 0.32, respectively.

Consider `CC(C)n1c(=O)c(C(=O)NC23CC4CC(CC(C4)C2)C3)c(O)c2nn(C)cc21` [Ix, N-(Adamantan-1-yl)-4,5-dihydro-7-hydroxy-2-methyl-5-oxo-4-(2-propyl)-2H-pyrazolo[4,3-b]pyridin-6-carboxamide], for which the MIC in [3] was 64 µg/mL; in [4] it was 32 µg/mL; in test [5] it was 128 µg/mL; in test [6] it was 32 µg/mL; in test [1] it was more than 512 µg/mL; with Escherichia coli CCUG^T, more than 512 µg/mL. For the same compound, the MIC in test [2] was more than 512 µg/mL. The Potentiation fold (in [1] (A. baumannii ATCC 17978); in the test with Escherichia coli CCUG^T (E. coli CCUG^T); in [2] (K. pneumoniae ATCC 13833)) was not below 64 in each case. Further, the “MIC in presence of colistin” value (in [1] (A. baumannii ATCC 17978); in the test on Escherichia coli CCUG^T (E. coli CCUG^T); in [2] (K. pneumoniae ATCC 13833)) was 8 mg/L each time. Moreover, the entries for the “Average FIC index” value with K. pneumoniae ATCC 13833, in the test with A. baumannii ATCC 17978 and with K. pneumoniae SI-4B were 0.33, 0.27 and 0.39, respectively.

Turning to `CC[C@H](C)CCCCC(=O)N[C@@H](CCN)C(=O)N[C@H](C(=O)N[C@@H](CCN)C(=O)N[C@H]1CCNC(=O)[C@H]([C@@H](C)O)NC(=O)[C@H](CCN)NC(=O)[C@H](CCN)NC(=O)[C@H](CC(C)C)NC(=O)[C@@H](CC(C)C)NC(=O)[C@H](CCN)NC1=O)[C@@H](C)O` [colistin, polymyxin E1, reference compound] (X1-[Dab]T[Dab][Dab][Dab][dL]L[Dab][Dab]T; lactam 4-C (inferred); N-terminus assumed), the “colistin MIC” value in test [1] (Acinetobacter baumannii ATCC 17978, colistin alone) amounted to 1 mg/L; in the test on Escherichia coli CCUG^T (Escherichia coli CCUG^T, colistin alone), 0.5 mg/L; in [2] (Klebsiella pneumoniae ATCC 13833, colistin alone), 0.5 mg/L. The “MIC Colistin” value in test [7] turned out to be 8 mg/L. The “bactericidal activity (killing of the bacterial population)” value in [8] was “unable to achieve complete and irreversible killing of the bacterial population”.
